From PubChem BioAssay (NCI)
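A five-concentration, 48-hour dose response in 96-well plates underlies each endpoint, interpolated linearly between surrounding concentrations. GI50 is the concentration that inhibits growth by half. TGI marks complete inhibition of growth.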

What was measured:
Assay in all cases: NCI tumour cell line growth inhibition, 48 h
SF-295 CNS = test system: SF-295 CNS
K-562 leukemia = test system: K-562 leukemia
A549 NSCLC = test system: A549 NSCLC
HCT-15 colon = test system: HCT-15 colon
UACC-257 melanoma = test system: UACC-257 melanoma
SK-MEL-5 melanoma = test system: SK-MEL-5 melanoma
COLO 205 colon = test system: COLO 205 colon
OVCAR-4 ovarian = test system: OVCAR-4 ovarian
SF-539 CNS = test system: SF-539 CNS
OVCAR-3 ovarian = test system: OVCAR-3 ovarian
T-47D breast = test system: T-47D breast
HT29 colon = test system: HT29 colon
NCI-H522 lung = test system: NCI-H522 lung
SW-620 colon = test system: SW-620 colon
M14 melanoma = test system: M14 melanoma
U251 CNS = test system: U251 CNS
MDA-MB-231 breast = test system: MDA-MB-231 breast
MCF7 breast = test system: MCF7 breast
OVCAR-5 ovarian = test system: OVCAR-5 ovarian
SR leukemia = test system: SR leukemia
SNB-19 CNS = test system: SNB-19 CNS
DU-145 prostate = test system: DU-145 prostate
UO-31 renal = test system: UO-31 renal
BT-549 breast = test system: BT-549 breast
SF-268 CNS = test system: SF-268 CNS
NCI/ADR-RES ovarian = test system: NCI/ADR-RES ovarian
CAKI-1 renal = test system: CAKI-1 renal
SK-MEL-2 melanoma = test system: SK-MEL-2 melanoma
NCI-H226 lung = test system: NCI-H226 lung

In the case of `Cn1cc(C2=C(c3cn(C)c4cc(C(=O)O)ccc34)C(=O)NC2=O)c2ccccc21`, the TGI (SF-295 CNS) is reported as greater than 25 µM, the GI50 (K-562 leukemia) is reported as greater than 25 µM and the TGI (K-562 leukemia) is reported as greater than 25 µM. The GI50 (A549 NSCLC) was greater than 25 µM, the TGI (A549 NSCLC) was greater than 25 µM and the GI50 (HCT-15 colon) was greater than 25 µM. The TGI (HCT-15 colon) was greater than 25 µM, the GI50 (UACC-257 melanoma) was greater than 25 µM and the TGI (UACC-257 melanoma) was greater than 25 µM. It also gave a GI50 (SK-MEL-5 melanoma) greater than 25 µM, a TGI (SK-MEL-5 melanoma) greater than 25 µM and a GI50 (COLO 205 colon) greater than 25 µM. It also gave a TGI (COLO 205 colon) greater than 25 µM, a GI50 (OVCAR-4 ovarian) greater than 25 µM and a TGI (OVCAR-4 ovarian) greater than 25 µM. It also gave a GI50 (SF-539 CNS) greater than 25 µM, a TGI (SF-539 CNS) greater than 25 µM and a GI50 (OVCAR-3 ovarian) greater than 25 µM. The TGI (OVCAR-3 ovarian) was greater than 25 µM, the GI50 (T-47D breast) was 21.1 µM and the TGI (T-47D breast) was greater than 25 µM. The GI50 (HT29 colon) was greater than 25 µM, the TGI (HT29 colon) was greater than 25 µM and the GI50 (NCI-H522 lung) was greater than 12.1 µM. For the same molecule, the TGI (NCI-H522 lung) was greater than 20.1 µM, the GI50 (SW-620 colon) was greater than 25 µM and the TGI (SW-620 colon) was greater than 25 µM. The GI50 (M14 melanoma) was greater than 25 µM, the TGI (M14 melanoma) was greater than 25 µM and the GI50 (U251 CNS) was greater than 25 µM. It also gave a TGI (U251 CNS) greater than 25 µM, a GI50 (MDA-MB-231 breast) greater than 25 µM and a TGI (MDA-MB-231 breast) greater than 25 µM. The GI50 (MCF7 breast) was greater than 25 µM, the TGI (MCF7 breast) was greater than 25 µM and the GI50 (OVCAR-5 ovarian) was greater than 25 µM. For the same molecule, the TGI (OVCAR-5 ovarian) was greater than 25 µM, the GI50 (SR leukemia) was greater than 13.4 µM and the TGI (SR leukemia) was greater than 25 µM. For the same molecule, the GI50 (SNB-19 CNS) was greater than 25 µM, the TGI (SNB-19 CNS) was greater than 25 µM and the GI50 (DU-145 prostate) was greater than 25 µM. The TGI (DU-145 prostate) was greater than 25 µM, the GI50 (UO-31 renal) was greater than 25 µM and the TGI (UO-31 renal) was greater than 25 µM. For the same molecule, the GI50 (BT-549 breast) was greater than 25 µM, the TGI (BT-549 breast) was greater than 25 µM and the GI50 (SF-268 CNS) was greater than 25 µM. For the same molecule, the TGI (SF-268 CNS) was greater than 25 µM, the GI50 (NCI/ADR-RES ovarian) was greater than 25 µM and the TGI (NCI/ADR-RES ovarian) was greater than 25 µM. It also gave a GI50 (CAKI-1 renal) greater than 17.2 µM, a TGI (CAKI-1 renal) greater than 25 µM and a GI50 (SK-MEL-2 melanoma) greater than 15.5 µM. It also gave a TGI (SK-MEL-2 melanoma) of 25 µM, a GI50 (NCI-H226 lung) greater than 25 µM and a TGI (NCI-H226 lung) greater than 25 µM.
